Measurements reported in US11434205B2, “Substituted imidazole carboxylate derivatives and the use thereof” (priority 2018, dated 2022).
Where two headings read alike, the source gives them in different places.

Assays:
rats [1] = experiment: Loss of righting reflexes (LORR) assay in rats, ED50 by up and down method; assay type: in vivo, rat; details: tail vein, class symbols; for ED50: Rattus norvegicus
In short: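 Adult male Sprague-Dawley rats (250-300 g) dosed i.v. via tail vein at 0.1 mL/s. Anesthesia scored as loss of righting reflex lasting >30 s; ED50 derived by up-and-down method.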

rats [2] = tested on: rats
Protocol: Adult male Sprague-Dawley rats (250-300 g) were selected for the experiment. […] The anesthesia effects of the compounds were assessed in rats using a LORR assay and a period >30 s was considered as an indicator of general anesthesia. Then the up and down method was used to determine 50% effective dose (ED50). The drugs were administered through the tail vein of rats in a volume of 0.6 mL and at a rate of 0.1 mL/s.

rats [3] = experiment: Pharmacological characteristics at equivalent doses (2×ED50) in rats; details: 2×ED50, tail vein; for Adverse reactions: Red urine (incidence): DMSO solution (DMSO alone 10/10); for Onset time: time of LORR; for Adverse reactions: Tremor (incidence): animals affected/animals
In short: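 Adult male Sprague-Dawley rats (250-300 g, n=8) received each drug at twice its ED50 via tail vein (0.6 mL at 0.1 mL/s). Onset of anesthesia taken as time to LORR.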

rats [4] = assay type: in vivo, rat; details: rats of the MAP/HR figures, 2×ED50, tail vein; same value in min
In short: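 Rats implanted with telemetry (left ventricular and abdominal aortic catheters, ECG leads) at least one week before recording; compounds given via lateral tail-vein catheter. MAP and HR sampled every 15 s for 30 min before and after dosing to judge hemodynamic stability.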

rats [5] = assay type: in vivo, rat; details: rats of the MAP/HR figures, 2×ED50, tail vein

Compound	ED50 (rats [1]) [mg/kg]	Approximate therapeutic index (rats [2])	Minimal lethal dose (rats [2]) [mg/kg]	Righting reflex duration (rats [3]) [min]	Adverse reactions: Red urine (incidence) (rats [3])	Onset time (rats [3]) [min]	recovery time of the test animals' righting reflex (rats [4]) [min]	recovery time of the test animals' righting reflex (rats [5]) [s]	Adverse reactions: Muscle twitching (incidence) (rats [3])	Adverse reactions: Tremor (incidence) (rats [3])	Adverse reactions: Tongue stretching (incidence) (rats [3])	ED50 (mg/kg) (rats [1])	Sedation duration (mg/kg) (rats [3])	Adverse reactions: Restlessness (incidence) (rats [3])
CC#CC(C)OC(=O)c1c(F)ncn1[C@H](C)c1ccccc1 (stereo partly drawn) [Compound E16]	0.1 to 0.5	>20	>4	3.59 ± 1.22	(8/8)	0.30 ± 0.09	3.33	200	–	–	–	–	–	–
CC#CC(C)(C)OC(=O)c1c(F)ncn1[C@H](C)c1ccccc1 [Compound E17]	0.1 to 0.5	>32	>9	3.12 ± 1.61	(8/8)	0.26 ± 0.07	3.27	196	(1/8),	–	–	–	–	–
C=C=CC(C)OC(=O)c1c(F)ncn1[C@H](C)c1ccccc1 (stereo partly drawn) [Compound E18]	0.01 to 0.1	>20	>1	2.51 ± 1.69	(8/8)	0.40 ± 0.20	2.63	158	–	–	–	–	–	–
C=C=CC(C)(C)OC(=O)c1c(F)ncn1[C@H](C)c1ccccc1 [Compound E19]	0.01 to 0.1	>40	>4	0.80 ± 0.30	urine (8/8)	0.34 ± 0.13	0.93	56	–	(3/8), Red	–	–	–	–
C=CC#CC(C)OC(=O)c1c(F)ncn1[C@H](C)c1ccccc1 (stereo partly drawn) [Compound E20]	0.01 to 0.1	>80	>5	0.75 ± 0.21	(8/8)	0.51 ± 0.16	0.85	51	–	–	(2/8),	–	–	–
C=CC#CC(C)(C)OC(=O)c1c(F)ncn1[C@H](C)c1ccccc1 [Compound E21]	–	>12	>9	2.76 ± 2.17	(8/8)	0.49 ± 0.20	2.58	155	–	–	–	C (C indicates that the measured ED50 is in the range of 0.50-1.00 mg/kg (excluding 0.50 mg/kg, including 1.00 mg/kg).)	7.71 ± 3.03	–
CCC(CC)OC(=O)c1c(F)ncn1[C@H](C)c1ccccc1 [Compound E22]	–	>30	>4	0.99 ± 0.70	urine (8/8)	0.73 ± 0.13	1.10	66	–	(4/8), Red	–	B (B means that the measured ED50 is in the range of 0.10-0.50 mg/kg (excluding 0.10 mg/kg, including 0.50 mg/kg).)	5.51 ± 1.13	–
CC(C)OC(=O)c1c(F)ncn1[C@H](C)c1ccccc1 [Compound E24]	0.01 to 0.1	>45	>4	1.00 ± 0.29	(8/8)	0.38 ± 0.14	1.25	75	–	–	–	–	–	–
C#CC(C)(C)OC(=O)c1c(F)ncn1[C@H](C)c1ccccc1 [Compound E25]	0.1 to 0.5	>24	>6	2.10 ± 0.86	urine (8/8)	0.25 ± 0.09	2.23	134	–	–	–	–	–	(2/8), Red
C[C@H](c1ccccc1)n1cnc(F)c1C(=O)OCC(C)(C)C [Compound E26]	–	>50	>4	1.45 ± 0.41	(8/8)	0.48 ± 0.09	1.57	94	–	–	–	A (A indicates that the measured ED50 is in the range of 0.01-0.10 mg/kg (including 0.01 and 0.10 mg/kg).)	6.37 ± 1.31	–
C[C@H](c1ccccc1)n1cnc(F)c1C(=O)OC1(C)CCC1 [Compound E27]	–	>24	>6	4.13 ± 1.12	(8/8)	0.31 ± 0.10	4.10	246	–	–	–	B (B means that the measured ED50 is in the range of 0.10-0.50 mg/kg (excluding 0.10 mg/kg, including 0.50 mg/kg).)	10.23 ± 1.60	–
CCC(C)(C)OC(=O)c1c(F)ncn1[C@H](C)c1ccccc1 [Compound E28]	0.1 to 0.5	>16	>6	2.69 ± 1.07	(8/8)	0.43 ± 0.19	2.5	150	–	–	–	–	–	–
